Patent publication US11840686B2, “Modulation of prekallikrein (PKK) expression” (Ionis Pharmaceuticals, Inc., priority 2013, dated 2023)
pIC50: −log10 of the molar value. Strand notation (5' to 3'): a small letter for the sugar, then the base; units joined by * are phosphorothioate-linked, units joined directly phosphodiester-linked; [ ] holds rarer units or linkages, { } end groups; capitals alone tell only the bases. e = 2'-O-(2-methoxyethyl) (MOE); [5mC] = 5-methylcytosine; d = 2'-deoxy (DNA)

Key:
[1] = system: human PKK mRNA; assay: Antisense inhibition of human PKK mRNA in HepaRG cells, 5,000 nM (Example 2); type: cell-based
Procedure, shortened: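 HepaRG cells (20,000/well) electroporated with 5,000 nM MOE gapmer (phosphorothioate backbone, 5-methylcytosines) and harvested after ~24 h. PKK mRNA measured by qRT-PCR with primer probe set RTS3454, normalized to RIBOGREEN total RNA; percent inhibition versus untreated cells.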

[2] = system: human PKK mRNA; assay: Dose-dependent antisense inhibition of human PKK in HepaRG cells, 0.19-5.00 uM (Example 5); type: cell-based; settings: for percent inhibition of PKK mRNA, 0.19 μM: 0.19 μM antisense oligonucleotide; for percent inhibition of PKK mRNA, 0.56 μM: 0.56 μM antisense oligonucleotide; for percent inhibition of PKK mRNA, 1.67 μM: 1.67 μM antisense oligonucleotide; for percent inhibition of PKK mRNA, 5.00 μM: 5.00 μM antisense oligonucleotide
Protocol: Cells were plated at a density of 20,000 cells per well and transfected using electroporation with 0.19 μM, 0.56 μM, 1.67 μM, and 5.00 μM concentrations of antisense oligonucleotide. After a treatment period of approximately 16 hours, RNA was isolated from the cells and PKK mRNA levels were measured by quantitative real-time PCR. Human PKK primer probe set RTS3454 was used to measure mRNA levels. PKK mRNA levels were adjusted according to total RNA content, as measured by RIBOGREEN®. The antisense oligonucleotides were tested in a series of experiments that had similar culture conditions.
The half maximal inhibitory concentration (IC50) of each oligonucleotide is also presented.

[3] = HepaRG cells, electroporation, approximately 16 hours, Table 35
[4] = 4 point dose response, HepaRG cells, Table 35
[5] = Table 7, HepaRG cells, electroporation with 5,000 nM antisense oligonucleotide, approx. 24 hours, PKK mRNA by RT-PCR (RTS3454), relative to untreated control cells
[6] = HepaRG cells, electroporation, approximately 16 hours, Table 37
[7] = 4 point dose response, HepaRG cells, Table 37
[8] = HepaRG cells, electroporation, approximately 16 hours, Table 41
[9] = 4 point dose response, HepaRG cells, Table 41
[10] = HepaRG cells, electroporation, approximately 16 hours, Table 36
[11] = HepaRG cells, electroporation, approximately 16 hours, Table 39
[12] = Table 8, HepaRG cells, electroporation with 5,000 nM antisense oligonucleotide, approx. 24 hours, PKK mRNA by RT-PCR (RTS3454), relative to untreated control cells
[13] = Table 34, HepaRG, electroporation, ~16 h
[14] = HepaRG cells, electroporation, approximately 16 hours, Table 38
[15] = 4 point dose response, HepaRG cells, Table 38
[16] = HepaRG cells, electroporation, approximately 16 hours, Table 40
[17] = 4 point dose response, HepaRG cells, Table 40
[18] = Table 9 experiment, HepaRG cells, 20,000 cells per well, electroporation with 5,000 nM antisense oligonucleotide, approx. 24 hours, PKK mRNA by RT-PCR (RTS3454), relative to untreated control cells
[19] = Table 10 experiment, HepaRG cells, 20,000 cells per well, electroporation with 5,000 nM antisense oligonucleotide, approx. 24 hours, PKK mRNA by RT-PCR (RTS3454), relative to untreated control cells

Substance: 546208 (antisense e[5mC]*eG*eT*eT*eA*d[5mC]*dT*d[5mC]*dA*dG*d[5mC]*dA*d[5mC]*d[5mC]*dT*eT*eT*eA*eT*eA) [compound 546208]
- % inhibition ([1]; HepaRG cells, electroporation with 5,000 nM antisense oligonucleotide, approximately 24 hours, PKK mRNA by RT-PCR (RTS3454), relative to untreated control cells, Table 6 experiment): 92%
- percent inhibition of PKK at 0.19 μM [2, 3]: 16%
- percent inhibition of PKK at 0.56 μM [2, 3]: 45%
- percent inhibition of PKK at 1.67 μM [2, 3]: 79%
- percent inhibition of PKK at 5.00 μM [2, 3]: 91%
- pIC50 [2, 4]: 6.15
- percent inhibition of PKK mRNA, 0.19 μM ([2]; HepaRG cells): 5%
- percent inhibition of PKK mRNA, 0.56 μM ([2]; HepaRG cells): 33%
- percent inhibition of PKK mRNA, 1.67 μM ([2]; HepaRG cells): 70%
- percent inhibition of PKK mRNA, 5.00 μM ([2]; HepaRG cells): 97%
- pIC50 ([2]; HepaRG cells, 0.19-5.00 μM): 6.05

Substance: 546214 (antisense eG*eA*eG*eA*eA*d[5mC]*d[5mC]*d[5mC]*dT*dG*dG*d[5mC]*dA*dA*d[5mC]*eA*eT*e[5mC]*e[5mC]*eA) [compound 546214]
- % inhibition [1, 5]: 88%
- percent inhibition of PKK at 0.19 μM [2, 6]: 0%
- percent inhibition of PKK at 0.56 μM [2, 6]: 0%
- percent inhibition of PKK at 1.67 μM [2, 6]: 68%
- percent inhibition of PKK at 5.00 μM [2, 6]: 85%
- pIC50 [2, 7]: 5.89

Substance: 546216 (antisense e[5mC]*eT*eG*eG*eA*dG*dT*dG*dA*dG*dA*dA*d[5mC]*d[5mC]*d[5mC]*eT*eG*eG*e[5mC]*eA) [compound 546216]
- % inhibition [1, 5]: 93%
- percent inhibition of PKK at 0.19 μM [2, 3]: 62%
- percent inhibition of PKK at 0.56 μM [2, 3]: 69%
- percent inhibition of PKK at 1.67 μM [2, 3]: 88%
- percent inhibition of PKK at 5.00 μM [2, 3]: 88%
- percent inhibition of PKK at 5.00 μM [2, 8]: 98%
- percent inhibition of PKK at 0.19 0μM [2, 8]: 23%
- percent inhibition of PKK at 0.56 0μM [2, 8]: 78%
- percent inhibition of PKK at 1.67 1μM [2, 8]: 95%
- pIC50 [2, 9]: > 6.70

Substance: 546247 (e[5mC]*e[5mC]*eA*eA*eA*dG*dT*d[5mC]*dA*dA*d[5mC]*dT*d[5mC]*d[5mC]*d[5mC]*eG*eG*eG*eT*eA; antisense) [compound 546247]
- % inhibition [1, 5]: 90%
- percent inhibition of PKK at 0.19 μM [2, 10]: 0%
- percent inhibition of PKK at 0.56 μM [2, 10]: 29%
- percent inhibition of PKK at 1.67 μM [2, 10]: 71%
- percent inhibition of PKK at 5.00 μM [2, 10]: 88%
- pIC50 ([2]; 4 point dose response, HepaRG cells, Table 36): 5.96

Substance: 546248 (e[5mC]*e[5mC]*eT*e[5mC]*e[5mC]*dA*dA*dA*dG*dT*d[5mC]*dA*dA*d[5mC]*dT*e[5mC]*e[5mC]*e[5mC]*eG*eG; antisense) [compound 546248]
- % inhibition [1, 5]: 86%
- percent inhibition of PKK at 0.19 μM [2, 11]: 25%
- percent inhibition of PKK at 0.56 μM [2, 11]: 66%
- percent inhibition of PKK at 1.67 μM [2, 11]: 87%
- percent inhibition of PKK at 5.00 μM [2, 11]: 93%
- pIC50 ([2]; 4 point dose response, HepaRG cells, Table 39): 6.40
- percent inhibition of PKK mRNA, 0.19 μM ([2]; HepaRG cells): 0%
- percent inhibition of PKK mRNA, 0.56 μM ([2]; HepaRG cells): 59%
- percent inhibition of PKK mRNA, 1.67 μM ([2]; HepaRG cells): 73%
- percent inhibition of PKK mRNA, 5.00 μM ([2]; HepaRG cells): 89%
- pIC50 ([2]; HepaRG cells, 0.19-5.00 μM): 6.10

Substance: 546253 (eG*eT*e[5mC]*eT*e[5mC]*dT*dT*dG*dG*d[5mC]*dA*dA*dA*d[5mC]*dA*eT*eT*e[5mC]*eA*e[5mC]; antisense) [compound 546253]
- % inhibition [1, 12]: 98%
- percent inhibition of PKK at 0.19 μM [2, 13]: 1%
- percent inhibition of PKK at 0.56 μM [2, 13]: 13%
- percent inhibition of PKK at 1.67 μM [2, 13]: 46%
- percent inhibition of PKK at 5.00 μM [2, 13]: 81%
- pIC50 ([2]; Table 34, PKK mRNA, HepaRG, electroporation, ~16 h): 5.77

Substance: 546255 (e[5mC]*eT*eT*eT*eG*dT*dG*d[5mC]*dA*dA*dG*dT*d[5mC]*dT*d[5mC]*eT*eT*eG*eG*e[5mC]; antisense) [compound 546255]
- % inhibition [1, 12]: 92%
- percent inhibition of PKK at 0.19 μM [2, 3]: 32%
- percent inhibition of PKK at 0.56 μM [2, 3]: 35%
- percent inhibition of PKK at 1.67 μM [2, 3]: 78%
- percent inhibition of PKK at 5.00 μM [2, 3]: 87%
- pIC50 [2, 4]: 6.30
- percent inhibition of PKK mRNA, 0.19 μM ([2]; HepaRG cells): 5%
- percent inhibition of PKK mRNA, 0.56 μM ([2]; HepaRG cells): 39%
- percent inhibition of PKK mRNA, 1.67 μM ([2]; HepaRG cells): 82%
- percent inhibition of PKK mRNA, 5.00 μM ([2]; HepaRG cells): 96%
- pIC50 ([2]; HepaRG cells, 0.19-5.00 μM): 6.10

Substance: 546268 (e[5mC]*eT*eT*e[5mC]*e[5mC]*dT*dT*dA*d[5mC]*dA*dG*dT*d[5mC]*dT*dT*e[5mC]*eT*eG*eG*eG; antisense) [compound 546268]
- % inhibition [1, 12]: 93%
- percent inhibition of PKK at 0.19 μM [2, 3]: 56%
- percent inhibition of PKK at 0.56 μM [2, 3]: 50%
- percent inhibition of PKK at 1.67 μM [2, 3]: 82%
- percent inhibition of PKK at 5.00 μM [2, 3]: 93%
- percent inhibition of PKK at 5.00 μM [2, 8]: 92%
- percent inhibition of PKK at 0.19 0μM [2, 8]: 0%
- percent inhibition of PKK at 0.56 0μM [2, 8]: 71%
- percent inhibition of PKK at 1.67 1μM [2, 8]: 92%
- pIC50 [2, 9]: 6.30

Substance: 546287 (antisense eG*eT*eT*eG*eT*d[5mC]*d[5mC]*d[5mC]*d[5mC]*dA*dG*dT*dG*dT*dT*eA*e[5mC]*eA*e[5mC]*eA) [compound 546287]
- % inhibition [1, 12]: 82%
- percent inhibition of PKK at 0.19 μM [2, 14]: 0%
- percent inhibition of PKK at 0.56 μM [2, 14]: 15%
- percent inhibition of PKK at 1.67 μM [2, 14]: 39%
- percent inhibition of PKK at 5.00 μM [2, 14]: 89%
- pIC50 [2, 15]: 5.77

Substance: 546291 (antisense e[5mC]*eA*eG*eG*eG*d[5mC]*d[5mC]*dA*d[5mC]*dT*d[5mC]*dT*d[5mC]*d[5mC]*d[5mC]*e[5mC]*eA*eA*eG*eA) [compound 546291]
- % inhibition [1, 12]: 81%
- percent inhibition of PKK at 0.19 μM [2, 16]: 22%
- percent inhibition of PKK at 0.56 μM [2, 16]: 32%
- percent inhibition of PKK at 1.67 μM [2, 16]: 34%
- percent inhibition of PKK at 5.00 μM [2, 16]: 72%
- pIC50 [2, 17]: 5.70

Substance: 546301 (antisense eT*eT*eG*eT*eA*dA*dT*dG*dT*d[5mC]*dT*dG*dA*d[5mC]*dA*eG*eA*eT*eT*eT) [compound 546301]
- % inhibition [1, 12]: 93%
- percent inhibition of PKK at 0.19 μM [2, 3]: 25%
- percent inhibition of PKK at 0.56 μM [2, 3]: 50%
- percent inhibition of PKK at 1.67 μM [2, 3]: 53%
- percent inhibition of PKK at 5.00 μM [2, 3]: 87%
- pIC50 [2, 4]: 6.10

Substance: 546304 (antisense e[5mC]*eT*eT*eT*eT*dA*dT*dT*dT*dG*dT*dG*dA*dG*dA*eA*eA*eG*eG*eT) [compound 546304]
- % inhibition [1, 18]: 94%
- % inhibition [1, 19]: 86%
- percent inhibition of PKK at 0.19 μM [2, 6]: 0%
- percent inhibition of PKK at 0.56 μM [2, 6]: 6%
- percent inhibition of PKK at 1.67 μM [2, 6]: 51%
- percent inhibition of PKK at 5.00 μM [2, 6]: 71%
- pIC50 [2, 7]: 5.68

Substance: 546310 (antisense eG*eA*eT*eT*e[5mC]*d[5mC]*d[5mC]*dT*dT*d[5mC]*dT*dG*dA*dG*dA*e[5mC]*eT*eT*eT*eA) [compound 546310]
- % inhibition [1, 18]: 78%
- % inhibition [1, 19]: 67%
- percent inhibition of PKK at 0.19 μM [2, 16]: 0%
- percent inhibition of PKK at 0.56 μM [2, 16]: 36%
- percent inhibition of PKK at 1.67 μM [2, 16]: 56%
- percent inhibition of PKK at 5.00 μM [2, 16]: 80%
- pIC50 [2, 17]: 5.89

Substance: 546358 (antisense e[5mC]*eT*eG*eA*eG*d[5mC]*dT*dT*dT*dT*d[5mC]*d[5mC]*dA*dT*d[5mC]*eA*e[5mC]*eT*eG*e[5mC]) [compound 546358]
- % inhibition ([1]; HepaRG cells, electroporation, 5,000 nM antisense oligonucleotide, approx. 24 hours, primer probe set RTS3454, relative to untreated control cells, Table 11): 83%
- percent inhibition of PKK at 0.19 μM [2, 14]: 0%
- percent inhibition of PKK at 0.56 μM [2, 14]: 19%
- percent inhibition of PKK at 1.67 μM [2, 14]: 71%
- percent inhibition of PKK at 5.00 μM [2, 14]: 80%
- pIC50 [2, 15]: 5.89
